Reference: patent US9237744B2, “Preservative solution for cells, tissues and organs containing rare sugar and preservative method thereof” (NATIONAL UNIVERSITY CORPORATION KAGAWA UNIVERSITY, priority 2004, dated 2016)

Tested on: HFB (human fibroblast)
Assay: Survival rate of cells after freeze-preservation at −80° C. for 24 hours, trypan blue (Example 1)
Format: cell-based
Conditions: concentration 50 mM (foregoing studies)
Procedure: 1. Cells used: Hela (human cervical cancer), OVCAR-3 (human ovarian cancer), HuH-7 (human liver cancer), HaCaT (human skin keratinocyte), HFB (human fibroblast) and NIH3T3 (mouse fibroblast). Saccharides D-allose and the like were added to culture medium, Cell Banker (commercially available preservative solution) and DMSO at concentrations of 25 mM and 50 mM. Monosaccharides such as D-glucose, D-fructose, D-mannose and D-galactose which are present in nature in large quantities and D-allose, D-psicose, D-altrose, allitol, D-talitol and L-sorbose as rare sugars were used. Further, trehalose as disaccharide was used. The cells were preserved for 24 hours by being frozen at −80° C. 1) Survival rate of cells: One day later, the cells were thawed, and the survival rate was estimated by trypan blue dying method.

O=C[C@H](O)[C@H](O)[C@H](O)[C@H](O)CO [D-allose]
improvement effect as preservative agent: no great improvement effect was obtained
